These results are taken from article PMC10795798 (Journal of the American Chemical Society, 2023).

The target in the test is T1, CYP199A4 (Rhodopseudomonas palustris, UniProt Q2IU02).
T1 sequence (Q2IU02 1-410): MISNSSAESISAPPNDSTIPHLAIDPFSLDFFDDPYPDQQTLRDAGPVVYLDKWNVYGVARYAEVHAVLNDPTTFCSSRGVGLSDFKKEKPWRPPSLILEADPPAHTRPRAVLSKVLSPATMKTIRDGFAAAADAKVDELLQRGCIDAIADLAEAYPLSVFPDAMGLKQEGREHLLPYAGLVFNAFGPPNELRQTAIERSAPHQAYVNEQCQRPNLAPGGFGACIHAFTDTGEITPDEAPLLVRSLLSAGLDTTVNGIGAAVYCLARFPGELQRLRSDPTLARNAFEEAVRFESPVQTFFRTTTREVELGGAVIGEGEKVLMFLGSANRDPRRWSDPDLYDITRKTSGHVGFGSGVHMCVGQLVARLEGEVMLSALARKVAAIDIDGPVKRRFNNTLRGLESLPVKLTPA
The experiment in a line: UV-vis spectral titration. The format is binding.

`CC(=O)c1ccc(C(=O)O)cc1` [4-acetylbenzoic acid]: the equilibrium dissociation constant (Kd) was determined as 140 ± 5 µM.

Broadly, the Kd is the free concentration of one partner at which half of the binding sites on the other are occupied at equilibrium, for simple one-to-one binding. A higher Kd goes with lower affinity.
